Source: patent US10399987B2, “TGF beta receptor antagonists” (BRISTOL-MYERS SQUIBB COMPANY, priority 2015, dated 2019)

Biological target: HIS-TGFβR1 T204D (Homo sapiens (Human), UniProt P36897, T204D)
Assay: TGFβR1 HIS T204D HTRF assay (labeled small molecule probe, anti-HIS detection antibody)
Format: binding
Conditions: 1 nM HIS-TGFβR1 T204D, probe at Kd, 1 hour at room temperature, eleven concentrations

Chain of HIS-TGFβR1 T204D (P36897 34-503 T204D): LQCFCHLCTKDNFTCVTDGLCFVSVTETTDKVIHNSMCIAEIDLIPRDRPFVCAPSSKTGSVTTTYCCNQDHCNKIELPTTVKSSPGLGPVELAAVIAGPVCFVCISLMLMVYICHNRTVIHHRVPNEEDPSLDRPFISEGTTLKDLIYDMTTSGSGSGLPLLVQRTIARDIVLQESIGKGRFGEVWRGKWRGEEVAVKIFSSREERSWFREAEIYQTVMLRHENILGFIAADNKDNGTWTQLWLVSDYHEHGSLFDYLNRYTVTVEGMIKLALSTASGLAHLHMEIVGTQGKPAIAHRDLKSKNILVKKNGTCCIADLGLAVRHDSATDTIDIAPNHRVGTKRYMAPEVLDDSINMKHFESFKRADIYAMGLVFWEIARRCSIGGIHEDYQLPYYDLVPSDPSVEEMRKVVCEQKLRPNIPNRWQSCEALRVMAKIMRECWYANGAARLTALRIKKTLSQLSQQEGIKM

Row | Structure (SMILES) | IC50
1 | Fc1cnccc1Nc1nc(-c2cccc(C(F)F)n2)nc2[nH]ccc12 [Example 2, 2-(6-(difluoromethyl)pyridin-2-yl)-N-(3-fluoropyridin-4-yl)-7H-pyrrolo[2,3-d]pyrimidin-4-amine] | 0.25 nM
2 | CC(=O)Nc1cc(Nc2nc(-c3cccc(C(F)F)n3)nc3[nH]ccc23)ccn1 [Example 3, N-(4-((2-(6-(difluoromethyl)pyridin-2-yl)-7H-pyrrolo[2,3-d]pyrimidin-4-yl)amino)pyridin-2-yl)acetamide] | 0.78 nM
3 | O=C(CN1CCCC1)Nc1cc(Nc2nc(-c3cccc(C(F)(F)F)n3)nc3[nH]ccc23)ccn1 [Example 4, 2-(pyrrolidin-1-yl)-N-(4-((2-(6-(trifluoromethyl)pyridin-2-yl)-7H-pyrrolo[2,3-d]pyrimidin-4-yl)amino)pyridin-2-yl)acetamide] | 0.42 nM
4 | CN1CCN(CC(=O)Nc2cc(Nc3nc(-c4cccc(C(F)(F)F)n4)nc4[nH]ccc34)ccn2)CC1 [Example 5, 2-(4-methylpiperazin-1-yl)-N-(4-((2-(6-(trifluoromethyl)pyridin-2-yl)-7H-pyrrolo[2,3-d]pyrimidin-4-yl)amino)pyridin-2-yl)acetamide] | 0.53 nM
5 | Cc1c[nH]c2nc(-c3cccc(C(F)F)n3)nc(Nc3ccncc3F)c12 [Example 6, 2-(6-(difluoromethyl)pyridin-2-yl)-N-(3-fluoropyridin-4-yl)-5-methyl-7H-pyrrolo[2,3-d]pyrimidin-4-amine] | 0.76 nM
6 | CN1CCN(Cc2c[nH]c3nc(-c4cccc(C(F)F)n4)nc(Nc4ccncc4F)c23)CC1 [Example 7, 2-(6-(difluoromethyl)pyridin-2-yl)-N-(3-fluoropyridin-4-yl)-5-((4-methylpiperazin-1-yl)methyl)-7H-pyrrolo[2,3-d]pyrimidin-4-amine] | 3.7 nM
7 | Fc1cnccc1Nc1nc(-c2ccccn2)nc2[nH]ccc12 [Example 8, N-(3-fluoropyridin-4-yl)-2-(pyridin-2-yl)-7H-pyrrolo[2,3-d]pyrimidin-4-amine] | 0.26 nM
8 | c1ccc(-c2nc(-n3ccc4cnccc43)c3cc[nH]c3n2)nc1 [Example 9, 2-(pyridin-2-yl)-4-(1H-pyrrolo[3,2-c]pyridin-1-yl)-7H-pyrrolo[2,3-d]pyrimidine] | 1.2 nM
9 | Cc1nc(-c2nc(Nc3ccncc3F)c3cc[nH]c3n2)ccc1F [Example 11, 2-(5-fluoro-6-methylpyridin-2-yl)-N-(3-fluoropyridin-4-yl)-7H-pyrrolo[2,3-d]pyrimidin-4-amine] | 0.6 nM
10 | FC(F)c1cccc(-c2nc(-n3ccc4cnccc43)c3cc[nH]c3n2)n1 [Example 12, 2-(6-(difluoromethyl)pyridin-2-yl)-4-(1H-pyrrolo[3,2-c]pyridin-1-yl)-7H-pyrrolo[2,3-d]pyrimidine] | 0.64 nM
11 | Cc1nc(-c2nc(Nc3cc(Cl)ncc3F)c3cc[nH]c3n2)ccc1F [Example 13, N-(2-chloro-5-fluoropyridin-4-yl)-2-(5-fluoro-6-methylpyridin-2-yl)-7H-pyrrolo[2,3-d]pyrimidin-4-amine] | 4 nM
12 | Fc1ccc(-c2nc(Nc3ccncc3F)c3cc[nH]c3n2)nc1 [Example 14, 2-(5-fluoropyridin-2-yl)-N-(3-fluoropyridin-4-yl)-7H-pyrrolo[2,3-d]pyrimidin-4-amine] | 0.91 nM
13 | FC(F)c1cccc(-c2nc(Nc3ccnc(Cl)n3)c3cc[nH]c3n2)n1 [Example 15, N-(2-chloropyrimidin-4-yl)-2-(6-(difluoromethyl)pyridin-2-yl)-7H-pyrrolo[2,3-d]pyrimidin-4-amine] | 160 nM
14 | CC(=O)Nc1cc(Nc2nc(-c3cccc(C(F)F)n3)nc3[nH]ccc23)c(F)cn1 [Example 16, N-(4-((2-(6-(difluoromethyl)pyridin-2-yl)-7H-pyrrolo[2,3-d]pyrimidin-4-yl)amino)-5-fluoropyridin-2-yl)acetamide] | 0.71 nM
15 | COC(=O)Nc1cc(Nc2nc(-c3cccc(C(F)F)n3)nc3[nH]ccc23)ccn1 [Example 17, methyl (4-((2-(6-(difluoromethyl)pyridin-2-yl)-7H-pyrrolo[2,3-d]pyrimidin-4-yl)amino)pyridin-2-yl)carbamate] | 0.76 nM
